According to patent US20220241228A1, “Treatment of cholangiopathies” (CymaBay Therapeutics, Inc., priority 2021, published 2022):
Where two headings read alike, the source gives them in different places.

Columns and labels:
PBC patients [1] = conditions: 12-month trial, cited from earlier work
PPARα = target: T1, PPARα (Homo sapiens, UniProt Q07869); test: Specificity of seladelpar compared with PPARα; assay type: biochemical; conditions: PPARδ versus PPARα
T1 sequence (Q07869 1-468): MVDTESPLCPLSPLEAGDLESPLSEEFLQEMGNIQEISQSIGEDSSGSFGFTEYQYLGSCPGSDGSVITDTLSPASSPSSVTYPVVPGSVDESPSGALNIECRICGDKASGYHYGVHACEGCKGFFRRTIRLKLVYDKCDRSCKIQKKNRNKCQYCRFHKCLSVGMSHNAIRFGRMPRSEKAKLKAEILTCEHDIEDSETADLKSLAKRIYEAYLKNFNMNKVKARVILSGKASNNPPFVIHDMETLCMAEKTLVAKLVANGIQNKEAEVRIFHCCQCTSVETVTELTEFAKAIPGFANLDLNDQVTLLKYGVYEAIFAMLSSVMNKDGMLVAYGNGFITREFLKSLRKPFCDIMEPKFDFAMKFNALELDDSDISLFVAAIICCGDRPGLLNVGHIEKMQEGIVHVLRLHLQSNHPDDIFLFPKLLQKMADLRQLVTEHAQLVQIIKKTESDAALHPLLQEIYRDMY
Source text: It is specific (>600-fold and >2500-fold compared with PPARα and PPARγ receptors). PPARδ activation stimulates fatty acid oxidation and utilization, improves plasma lipid and lipoprotein metabolism, glucose utilization, and mitochondrial respiration, and preserves stem cell homeostasis.

[2] = test system: Subjects with primary biliary cholangitis; test: Pooled open-label Phase 2 and placebo-controlled Phase 3 studies of seladelpar in PBC subjects intolerant of, or with inadequate response to, obeticholic acid and/or a fibrate; assay type: in vivo, human; conditions: for Composite endpoint met / ALP ≤ ULN / Mean change in ALT / Mean change in TBIL / Mean change in ALP: three months; for Composite endpoint met: ALP <1.67×ULN, >15% decrease in ALP, and TBIL ULN; for Mean change in ALP: from baseline
Source text: The trial subjects were adult, male or female, with a diagnosis of PBC by at least two of the following three criteria: (a) a history of ALP above the upper limit of normal (ULN) for at least six months, (b) positive anti-mitochondrial antibody titers > 1/40 on immunofluorescence or M2 positive by enzyme linked immunosorbent assay or positive PBC-specific antinuclear antibodies, and (c) documented liver biopsy result consistent with PBC, on a stable and recommended dose of UDCA for the past twelve months or UDCA intolerant, and ALP ≥1.67×ULN. Exclusion criteria included AST or ALT ≥3×ULN, TBIL ≥2×ULN, autoimmune hepatitis or a history of chronic viral hepatitis, PSC, the current use of fibrates or simvastatin, the use of colchicine, methotrexate, azathioprine, or systemic steroids in the previous two months, the use of an experimental treatment for PBC, and the use of an experimental or unapproved immunosuppressant. […] Efficacy was assessed on subjects treated for three months. The composite endpoint was the responder rate for subjects achieving ALP <1.67×ULN, >15% decrease in ALP, and TBIL ULN. Additional endpoints were ALP ULN, ALP change from baseline, and other markers of liver function. Safety was assessed over one year. […] Fifty-one subjects were treated for 3 months; and 37 were assessed; with results in the table below: A safety analysis was performed on all 71 subjects.

subjects with PSC = test: Randomized placebo-controlled 24-week trial in primary sclerosing cholangitis (Example 2); assay type: in vivo, human; conditions: 5, 10, or 20 mg/day orally once/day for 24 weeks
Experimental: Trial subjects are adult, male or female, with a diagnosis of PSC by at least two of the following three criteria: (a) historical evidence of an elevated AP >ULN from any prior laboratory result, (b) liver biopsy consistent with PSC, and (c) abnormal cholangiography consistent with PSC as measured by MRCP, ERCP, or percutaneous transhepatic cholangiography; on a stable and recommended dose of UDCA ≤20 mg/Kg/day for the past six months or at least twelve weeks off UDCA treatment; and intolerant of, or having an inadequate response to, obeticholic acid and/or a fibrate. Other criteria include ALP ≥1.5×ULN, TBIL ≤2×ULN, ALT and AST both ≤5×ULN, eGFR >60 mL/min/1.73 m^2, platelets ≥140×10^3/μL, INR ≤1.3 (in the absence of warfarin or other anticoagulant therapy), and albumin ≥3.5 g/dL. Exclusion criteria include clinically significant acute or chronic liver disease of an etiology other than PSC, a diagnosis of overlapping autoimmune hepatitis (AIH) and PSC, secondary or IgG4 related sclerosing cholangitis, small duct PSC, presence of a cholangiocarcinoma on cholangiography or MRI, bile duct stenting, history, evidence, or high suspicion of cholangiocarcinoma or other hepatobiliary malignancy, presumptive or diagnosed acute cholangitis within twelve weeks, and evidence of compensated or decompensated cirrhosis. […]

[3] = test system: patients with primary biliary cholangitis; conditions: over a 52-week period; cited from earlier work
PBC patients [4] = conditions: cited from earlier work
[5] = PBC subjects intolerant of, or inadequate response to, obeticholic acid and/or a fibrate

In the case of CC[C@H]1[C@@H](O)[C@@H]2[C@H](CC[C@]3(C)[C@@H]([C@H](C)CCC(=O)O)CC[C@@H]23)[C@@]2(C)CC[C@@H](O)C[C@@H]12 [OCA, 6α-ethylchenodeoxycholic acid], the “patients with severe pruritus” value (PBC patients [1]; OCALIVA 10 mg arm) is given as 23% and the “patients with severe pruritus” value (PBC patients [1]; OCALIVA titration arm) is given as 19%.
In the case of CCO[C@H](COc1ccc(C(F)(F)F)cc1)CSc1ccc(OCC(=O)O)c(C)c1 [Seladelpar, [4-({(2R)-2-ethoxy-3-[4-(trifluoromethyl)phenoxy]propyl}sulfanyl)-2-methylphenoxy]acetic acid], the “specificity compared with PPARα” value (PPARα) is reported as > 600 fold, the “Pruritus adverse events experienced” value ([2]; 5 mg/day orally once/day) is reported as 15% and the Composite endpoint met ([2]; 5 mg/day orally once/day as L-lysine dihydrate salt) is reported as 40%. The “ALP ≤ ULN” value ([2]; 5 mg/day orally once/day) was 0, the “Mean change in ALT” value ([2]; 5 mg/day orally once/day) was −13% and the “Mean change in TBIL” value ([2]; 5 mg/day orally once/day) was −3%. The “Mean change in ALP” value ([2]; 5 mg/day orally once/day) was −31%, the “subjects who experienced a serious adverse event” value ([2]; 5 mg/day, safety analysis on all 71 subjects, all unrelated to seladelpar) was “three” and the “subjects who discontinued treatment due to adverse events” value ([2]; 5 mg/day, safety analysis on all 71 subjects, one ALT/AST elevation, one gastroesophageal reflux disease) was “two”. The “Pruritus adverse events experienced” value ([2]; 10 mg/day orally once/day) was 7%, the Composite endpoint met ([2]; 10 mg/day orally once/day as L-lysine dihydrate salt) was 79% and the “ALP ≤ ULN” value ([2]; 10 mg/day orally once/day) was 21%. The “Mean change in ALT” value ([2]; 10 mg/day orally once/day) was −21%, the “Mean change in TBIL” value ([2]; 10 mg/day orally once/day) was −9% and the “Mean change in ALP” value ([2]; 10 mg/day orally once/day) was −45%. The “biochemical markers of cholestasis” value [2, 5] was “meaningful improvement”, the safety and tolerability [2, 5] was “safe, well tolerated” and the ALP (subjects with PSC) was “dose-related reductions”. The PSC-related symptoms (subjects with PSC) was “improvements”, the “ALP and GGT” value [3] was “statistically significant decreases” and the ALT [3] was “statistically significant decrease”. For the same molecule, the total bilirubin levels [3] was “stable”.
For C[C@H](CCC(=O)O)[C@H]1CC[C@H]2[C@@H]3[C@@H](O)C[C@@H]4C[C@H](O)CC[C@]4(C)[C@H]3CC[C@]12C [UDCA, ursodeoxycholic acid], the “patients reported to be intolerant to treatment” value (PBC patients [4]) is given as “about 5%”.
